Measurements as given in patent US20250275993A1, “GLYCOSYLATION INHIBITORS AS THERAPEUTICS FOR STROKE” (The Regents of the University of California, priority 2022, published 2025).

Legend:
[1] = test system: bovine retinal microvascular endothelial cells (BREC); assay: BREC proliferation assay; format: cell-based; settings: bovine retinal EC
Method: (§1) Proliferation assays with BCECs and BRECs were performed. Log-phase growing BCECs or BRECs (passage <10) were trypsinized, re-suspended and seeded in 96-well plates (no coating) in low-glucose DMEM supplemented with 10% bovine calf serum, 2 mM glutamine, and antibiotics (growth medium), at a density of 1200-1500 cells per well in 200 μl volume. All reagents were added at the indicated final concentrations. After 3-6 days, cells were incubated with AlamarBlue for 4 hrs. Fluorescence was measured at 530 nm excitation wavelength and 590 nm emission wavelength. The experiments were repeated at least three times. To create a hypoxic condition, cells were placed in a hypoxia incubator with a mixture of gas consisting of 1% O2, 5% CO2 and 94% N2. On each 96-well plate, untreated and VEGF-treated (10/ng/ml) wells were included to monitor plate-to-plate variations. 20% methanol or 0.05% DMSO served as negative controls. […] Human RMVECs and human adult DMVECs were split into Gelatin-coated 96 wells (2000 cells per well) in low glucose DMEM containing 10% FBS. 1200 cells/well was set up for proliferation assay in low glucose media containing 0.5% FBS. Data was collected at day 4 or 5. HUVEC (p7-10) were grown on gelatin-coated plate until it reached 70-80% confluency.

[2] = test system: human retinal microvascular EC (hRMECs); assay: hRMEC proliferation assay; format: cell-based
Method: as §1

[3] = test system: BCEC; assay: BCEC transwell migration assay; format: cell-based, bovine; settings: ManN at 40 μM
Method: (§2) HUVECs (passage 6-8) were cultured and serum-starved as described in “Western Blots”. Ten thousand cells in […] of EBM-2 medium were then added to the upper chamber of […] pore size cell culture inserts (Falcon) coated with 0.1% gelatin. The lower compartment was filled with […] EBM-2 medium containing various agents. The plates were incubated at 37° C. to allow migration. After 4 hrs, cells were fixed with 4% PFA for 20 min and then stained with crystal violet (Sigma-Aldrich) for 20 min at RT. Migrated cells on the bottom side of the insert membrane were quantified by counting whole area of the insert at 40× magnification. The experiments were carried out in triplicate and repeated three times. BCEC migration was set up similarly, except that wells were coated with FN, cells were suspended in 1% serum media and migration time was 18-24 hrs.

[4] = test system: HUVEC; assay: HUVEC migration assay; format: cell-based, human; settings: 40 μM ManN alone
Method: as §2

[5] = test system: HUVEC; assay: HUVEC scratch assay; format: cell-based, human; settings: 40 μM ManN in combination with 50 ng/ml VEGF
Method: BCECs (passage 6-10) and HUVEC (passage 6-8) were used in this assay.
Cells were grown until about 80% confluency in 6-well plates, washed twice with PBS and then starved in serum-free DMEM (low Glucose, Hyclone) for 5 hrs before making a “scratch” using 1 ml tip. Cell monolayers were briefly washed once with serum-free media, followed by various treatments in media containing 1% FBS. 48 hrs later, the assay was stopped by adding 2 ml 4% paraformaldehyde. 20 min later, fixed cells were stained with 1 ml Crystal Violet (Sigma). Plates were washed gently under the running tap water and air-dried before taking pictures. Images were acquired by ZEISS Discovery V8 SteREO microscopy equipped with PixeLINK Megapixel FireWire camera. Quantification of wound closure was done using AxioVision LE Rel.4.4 software. Six images were taken for each sample and six measurements (in pixel) were made on each image using AxioVision LE Re1.4.4 software.

[6] = target: T1, α-mannosidase from Jack Bean (Canavalia ensiformis, UniProt C0HJB3); assay: α-mannosidase activity assay; format: biochemical; settings: 400 μM
T1 construct: purchased M7257
Method: (§3) a-mannosidase activity was measured using substrate p-nitrophenyl α-mannopyranoside (1 mM). Enzyme from Jack Bean (M7257) (final concentration of 0.077 U) was incubated at 37° C. in a final volume of 50 μl of 50 mM potassium phosphate buffer, pH 7.5. α-glucosidase was assayed with substrate p-nitrophenyl a-glucoside (7 mM). Enzyme from Saccharomyces cerevisiae-type 1 (Sigma, G5003) (final concentration of 0.1 U) was incubated at 37° C. in a final volume of 50 μl of PBS, pH 7.5. β-Glucosidase was assayed with substrate 4-nitrophenyl β-D-glucopyranoside (Roche). Enzyme from almond (Sigma, G0395) (final concentration of 0.002 U) was incubated at 37° C. in a final volume of 50 μl of PBS, pH 7.5 […]. The incubation was stopped by addition of an equal volume of acid-based stop solution (R&D systems, 895032). Enzymatic activity was measured at 405 nm. α-glucosidase from Saccharomyces cerevisiae type I (G5003) with p-nitrophenyl α-D-glucopyranoside (Sigma, N1377) as the substrate.

[7] = test system: β-Glucosidase; assay: β-glucosidase activity assay; format: biochemical, almond; settings: up to 2 mM
Method: as §3

[8] = test system: AML12 liver cells; assay: AML12 proliferation assay; format: cell-based, mouse
Method: (§4) Proliferation assays with fibroblasts were done in low-glucose DMEM containing 1% FBS, with or without 10 ng/ml bFGF, or 100 ng/ml human EGF and the assay was ended at day 3. ARPE-19 cells were gently lifted with 0.025% trypsin and plated in RtEGM media (Clonetics) containing 2% FBS, L-glutamine, human bFGF and GA-1000. Once cells were attached to plates, serum-free RtEGM media was used to maintain the cultures. For proliferation assays, 1500 human RPE cells were plated into 96-well plates in low-glucose DMEM containing 1% FBS. A673, U87MG, Calu6 and AML12 cells were grown until confluent and were then harvested and re-suspended in appropriate assay media. For proliferation assays, cells were plated at the density of 1000-2000 cells/well in low-glucose DMEM containing 5% FBS or otherwise stated. Bovine pituitary cells (pituitary folliculostellate cells) were isolated as previously described. For proliferation assays with human epidermal keratinocytes, human DMVECs and human dermal fibroblast cells, 1000 cells/well were plated in low-glucose DMEM containing 1% FBS with or without various growth factors. The assay was ended at day 3 for bovine pituitary cells and at day 4 for all the other cell types. […] Four days later, tumor cell growth was measured by the MTS assay (Promega, Madison, WI), a colorimetric assay that measures metabolic activity of viable cells. […]

[9] = test system: bovine pituitary cells; assay: Bovine pituitary cell proliferation assay; format: cell-based; settings: alone or in combination with growth factors
Method: as §4

[10] = test system: human keratinocytes; assay: Human keratinocyte proliferation assay; format: cell-based
Method: as §4

[11] = alone or in combination with growth factors

T1 sequence (C0HJB3 whole entry): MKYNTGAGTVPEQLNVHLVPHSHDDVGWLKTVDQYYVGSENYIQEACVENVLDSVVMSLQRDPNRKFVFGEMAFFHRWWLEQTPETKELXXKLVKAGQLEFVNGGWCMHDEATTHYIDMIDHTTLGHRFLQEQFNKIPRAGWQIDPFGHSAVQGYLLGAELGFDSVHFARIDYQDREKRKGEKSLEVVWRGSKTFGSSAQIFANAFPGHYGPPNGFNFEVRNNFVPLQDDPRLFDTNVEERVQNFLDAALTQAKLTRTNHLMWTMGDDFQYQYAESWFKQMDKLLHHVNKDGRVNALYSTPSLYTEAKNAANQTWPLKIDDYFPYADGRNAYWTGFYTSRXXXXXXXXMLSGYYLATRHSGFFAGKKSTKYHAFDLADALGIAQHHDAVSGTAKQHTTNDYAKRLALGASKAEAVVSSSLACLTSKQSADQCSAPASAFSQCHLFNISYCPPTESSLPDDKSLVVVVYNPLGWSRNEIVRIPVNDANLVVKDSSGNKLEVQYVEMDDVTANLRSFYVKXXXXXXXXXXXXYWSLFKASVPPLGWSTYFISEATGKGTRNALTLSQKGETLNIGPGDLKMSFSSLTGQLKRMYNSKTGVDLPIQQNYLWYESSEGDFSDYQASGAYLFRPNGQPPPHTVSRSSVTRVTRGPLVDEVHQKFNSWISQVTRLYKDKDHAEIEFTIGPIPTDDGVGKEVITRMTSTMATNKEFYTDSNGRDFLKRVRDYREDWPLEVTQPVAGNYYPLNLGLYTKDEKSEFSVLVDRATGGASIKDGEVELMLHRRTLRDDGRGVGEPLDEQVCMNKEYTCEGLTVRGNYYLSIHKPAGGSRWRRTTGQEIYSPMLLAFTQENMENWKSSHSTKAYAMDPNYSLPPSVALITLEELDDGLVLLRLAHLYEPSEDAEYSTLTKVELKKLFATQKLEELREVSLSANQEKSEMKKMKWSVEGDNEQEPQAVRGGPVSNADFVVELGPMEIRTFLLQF

## N[C@H](C=O)[C@@H](O)[C@H](O)[C@H](O)CO [ManN, 2-Amino-2-deoxy-D-mannose]
[1]
  additive effects in promoting BREC proliferation: Additive effects
[2]; 5 mM ManN
  toxicity on hRMECs: minimal toxicity
[2]; with VEGF
  additivity with VEGF on hRMEC proliferation: dose-dependent additivity with VEGF
[3]
  additivity with VEGF in BCEC migration: significant additivity with VEGF in promoting BCEC migration
[4]
  HUVEC migration: stimulation of migration and wound closure
[5]
  HUVEC wound closure: stimulation of migration and wound closure
[6]
  inhibitory activity on α-mannosidase: inhibitory activity
[7]
  effect on β-glucosidase: No effect
[8]; 5 mM level of ManN
  sensitivity of AML12 to ManN toxicity: most sensitive one
[8]; [11]
  proliferation of AML12: no increases in proliferation
[9]
  proliferation of bovine pituitary cells: no increases in proliferation
[10]; 5 mM level of ManN
  sensitivity of human keratinocytes to ManN toxicity: least sensitive ones
[10]; [11]
  proliferation of human keratinocytes: no increases in proliferation
